Laboratory results published in patent EP0873137B1, “COMPOSITIONS INCLUDING CALCIUM INFLUX BLOCKERS FOR INHIBITING CELL GROWTH” (The Wellesley Hospital Foundation, priority 1996, dated 1997).

How the values were obtained:
[1] = tested on: Bone marrow derived mast cells (BMMC); test: Cell death assay (Trypan blue exclusion) in BMMC; format: cell-based; details: 24 hours
Protocol: Cytotoxicity assays were performed as described in Materials and Methods. In Figures 1A to 1C, BMMCs were incubated with either SLF (500ng/ml in all cases) (circles) or IL-3 (25% WEHI-3 conditioned medium in all cases) (squares) with the indicated amounts of ketotifen (Figure 1A), econazole (Figure 1B) or Ni^2+ (Figure 1C). In Figure 1D, BMMCs were incubated with IL-3, and the indicated amounts of SLF. Plotted circles also included 2.5mM Ni^2+ and plotted squares included no Ni^2+. In Figure 1E, BMMCs were coated with IgE anti-DNP monoclonal SPE-7, then incubated with IL-3 plus the indicated amounts of DNP-HSA (Ag), with 5µM econazole (circles) or without econazole (squares). In Figure 1F, BMMCs were incubated with IL-3 plus the indicated amounts of Substance P, with 5µM econazole (circles) or without econazole (squares). In all cases, the proportion of dead cells was determined after 24 hours in culture by counting cells that could or could not exclude Trypan blue. Error bars represent the standard error determined from triplicate measurements.
(§1) Cells. Bone marrow derived mast cells (BMMC) were generated as described previously (Berger et al., 1994). They were cultured in OPTI-MEM (Gibco, Burlington, ON) supplemented with 10% heat-inactivated FBS and 2% WEHI-3 supernatant as a source of IL-3. 32D-kit cells (gift from Dr. Mark Minden, Ontario Cancer Institute) are an IL-3-dependent myelomonocytic cell line expressing c-kit (Hu et al., 1995). 32D-kit cells were grown in RPMI (Gibco) supplemented with 10% heat-inactivated FBS, 2% WEHI-3 supematant, and 1 mg/ml G418 (Gibco). The p815 cell line is a murine mastocytoma cell line. P815 cells were grown in RPMI supplemented with 10% heat-inactivated FBS. Bcl-2 gp+e NIH 3T3 packaging cells were grown in Dulbecco's modified Eagle's medium (DMEM - Gibco) and supplemented with 10% FBS and 2 µg/ml puromycin (Sigma, St. Louis, Mo). All cell cultures also contained 55µM β-mercaptoethanol and antibiotics (both Sigma). SK-BR3, MDA-MB231 and MCF-7 cells were obtained from ATCC. SK-BR3 and MDA-MB231 cells were cultured in RPMI medium supplemented with 10% heat inactivated fetal bovine serum. MCF-7 cells were cultured in DMEM medium supplemented with 10% heat inactivated fetal bovine serum and 10 µg/ml human insulin (Sigma).
(§2) Cell death assays. 2.5 X 10^4 BMMCs, 32D-kit or P815 cells were placed in 96-well flat bottom plates in a volume of 0.1 ml RPMI containing 0.5% FBS. Cells were supplemented with either SLF, Substance P or IL3 plus Ca^2+ channel blocker. In the case of adding IgE, cells were incubated with 10 µg/ml SPE-7 for 45 minutes at 4°C followed by 3 washes with RPMI, 0.5% FBS before plating in 96 well plates and adding 100 ng/ml DNP-HSA. The proportion of dead cells was determined after 18 or 24 hours in culture by counting cells that could or could not exclude Trypan blue.

32D-kit cells = test: Cell death assay (Trypan blue exclusion) in 32D-kit cells; format: cell-based
Protocol: Figures 2A and 2B show induction of cell death in 32D-kit or p815 cells with SLF plus Ca^2+ influx blockers. 32D-kit (Figure 2A) or p815 (Figure 2B) cells were incubated with either SLF (solid bars) or IL-3 (striped bars) plus the indicated concentration of Ca^2+ influx blocker. Cell death was determined by Trypan Blue exclusion after 18 hours in culture.
32D-kit cells were incubated for 18 hours with SLF and 5µM econazole and oleic acid (solid bars), or with SLF and 5µM econazole and elaidic acid (hatched bars), or IL-3 and 5 µM econazole and oleic acid (stippled bars). The proportion of dead cells was determined by Trypan Blue exclusion.
(§3) Figures 6A and 6B show the effect of ionomycin on apoptosis induced by SLF and Ca^2+ influx blacker. In Figure 6A, 32D-kit cells were incubated for 18 hours with 5µM econazole and the indicated amounts of ionomycin in the presence of either SLF (circles) or IL-3 (squares). In Figure 6B, 32D-kit-Bcl-2 cells were incubated for 18 hours with 5µM econazole and the indicated amounts of ionomycin in the presence of either SLF (circles) or IL-3 (squares). The proportion of dead cells was determined by Trypan Blue exclusion.
(§4) In additional cultures, IL-3 alone or no factor was added and cell viability was similarly tested. The effect on cell viability of adding 25 or 250 µM YVAD-CHO was also evaluated in separate cultures in which no additional factors were added.
32D-kit cells were incubated with either SLF in the absence of YVAD-CHO (circles), or with SLF in the presence of 25 µM YVAD-CHO. (triangles), or IL-3 (squares) with the indicated amounts of econazole. The proportion of dead cells was evaluated by Trypan Blue exclusion after 18 hours in culture
as §1, §2

32D-kit-Bcl-2 cells = test: Cell death assay (Trypan blue exclusion) in Bcl-2 over-expressing 32D-kit cells; format: cell-based; details: 5µM econazole, 18 hours, Figure 6B
Protocol: as §3, §4
Generation of Bcl-2 over-expressing 32D-kit cells. gp + e bcl-2 retroviral producer cells were a gift from Dr. Y. Ben-David (Toronto) and contain an LXSN-based retroviral vector expressing genes for both puromycin resistance and murine bcl-2. For infection, a confluent layer of gp + e packaging cells were co-cultured with 32D-kit cells for 24 hours. Non-adherent 32D-kit cells were then removed, cultured for 48 hours and then selected for bcl-2 over-expressing cells in the presence of 2µg/ml puromycin.
as §2

MDA-MB-231 cells = test: Cell death in autocrine stimulated MDA-MB-231 breast cancer cells; format: cell-based, human; details: 20µM econazole; YVAD-CHO 10 or 100 µM, ionomycin 0.1 nM to 1 µM, oleic acid 10 or 100 µM
Protocol: Bar 1: control; Bar 2: 20µM econazole; Bar 3: 20µM econazole and 10µM YVAD-CHO (ICE inhibitor); Bar 4: 20µM econazole and 100 µM YVAD-CHO; Bar 5: 20µM econazole and 0.1 nM ionomycin (calcium ionophore); Bar 6: 20µM econazole and 10 nM ionomycin; Bar 7: 20µM econazole and 1 µM ionomycin; Bar 8: 20µM econazole and 10 µM oleic acid (PLC activation inhibitor); and Bar 9: 20µM econazole and 100 µM oleic acid.
as §1
The MDA-MB-231 cell line is a highly anaplastic carcinoma of the breast. it too is tumorigenic in nude mice but expresses only low levels of erbB2. However it is FGF^R positive and is stimulated in an autocrine fashion by bFGF (el Yazidi et al., 1995). Experiments were carried out to determine the susceptibility of MDA-MB-231 cells to a Ca^2+ influx blocker and the influence of oleic acid, ionomycin, and YVAD-CHO on induction of cell death by the blocker. The results are summarized together in Figure 9B.

32D-kit leukemia cells = test: 32D-kit leukemia in mice, SLF intravenously: G418-resistant spleen colonies in agar; format: in vivo
Protocol: Mice were inoculated intravenously with 1 X 10^7 G418-resistant 32D-kit cells. Between 3 and 5 weeks following the inoculation (Experiments 1 & 3; 5 weeks, experiment 2; 3 weeks), mice were given 100mg/kg ketotifen by oral gavage. Four hours following the ketotifen treatment, mice were injected with 15µg SLF intravenously. Two hours later the mice were given a further 100mg/kg ketotifen p.o. The following day, spleens were removed and assayed for the presence of leukemic cells by plating cells in 0.3% agar in growth medium containing 20% WEHI-3 conditioned medium and 1 mg/ml G418 to limit detection to the G418-resistant leukemic cells. Seven days later, colonies were enumerated.
(§5) Mice. For the in vivo 32D-kit experiments, mice were male C3H/ he mice 6 to 8 weeks old and obtained from Charles River Laboratories, Boston, Massachusetts. Mice were inoculated intravenously with 1 x 10^7 leukemic cells. Between 3 and 5 weeks following the inoculation, mice were given 100 mg/kg ketotifen (Sigma) in a volume of 0.4 ml water by oral gavage, Following the first ketotifen treatment, mice were injected intravenously or subcutaneously with 15 µg SLF in PBS. A second ketotifen treatment followed administration of SLF.
(§6) In order to determine the efficacy of the combination of a Ca^2+ influx blocker with an activating signal in vivo, mice inoculated with factor-dependent and G418-resistant 32D-kit leukemia cells were treated with a combination of ketotifen and SLF. In one set of experiments, spleen cells were removed and assayed for the presence of leukemic cells by plating cells in agar in growth medium containing 20% WEHI-3 conditioned medium and 1mg/ml G418 to limit detection to the G418-resistant leukemic cells. […] The number of G418-resistant colonies detected in animals that were injected with SLF only tended to be higher than those not receiving the factor, varying between 65 and 31,000 with an arithmetic average of 7,399, and a geometric mean of 1,545 colonies/spleen. […]

[2] = tested on: all cells capable of forming colonies in agar in response to IL-3; test: 32D-kit leukemia in mice, SLF intravenously: all IL-3-dependent spleen colonies in agar; format: in vivo; details: ketotifen 100mg/kg p.o. twice, SLF 15µg intravenously; leukemic as well as normal cells
Protocol: Figure 11B is similar to Figure 11A, but in this case spleen cells were assayed for the presence of all cells capable of forming colonies in agar in response to IL-3, to include leukemic as well as normal cells.
as §5
as §6, with “SLF.” for “SLF. In one set of experiments, spleen cells were removed and assayed for the presence of leukemic cells by plating cells in agar in growth medium containing 20% WEHI-3 conditioned medium and 1mg/ml G418 to limit detection to the G418-resistant leukemic cells.”

[3] = co-incubated with SLF (500ng/ml), Figures 1A-C
[4] = stimulated with IgE plus antigen (DNP-HSA), with IL-3, 5µM econazole in Figure 1E
[5] = SLF and 5µM econazole, 18 hours
[6] = ketotifen 100mg/kg p.o. twice, SLF 15µg intravenously, spleens next day

Molecule: [Ni+2] [Ni^2+]
- cell death [1, 3]: converted to a death signal
- cell death [1, 4]: combine with IgE receptor cross-linking to induce cell death

Molecule: CCCCCCCC/C=C/CCCCCCCC(=O)O [elaidic acid, trans-9-octadecenoic acid]
- rescue/protection from cell death induced by SLF and Ca^2+ influx blocker (32D-kit cells; [5]): not

Molecule: C[C@H](CCC(=O)O)C[C@H](C)C[C@H](C)C(=O)/C=C(\O)[C@H](C)C[C@H](C)C/C=C/[C@@H](C)[C@@H](O)[C@@H](C)[C@@H](O)C[C@@H]1CC[C@@](C)([C@H]2CC[C@@](C)([C@@H](C)O)O2)O1 [ionomycin]
- cell death at higher concentrations of ionomycin (32D-kit cells; [5]): restoration of cell death
- rescue/protection from cell death induced by SLF and Ca^2+ influx blocker (32D-kit cells; [5]): protects
- concentration of maximal protection (32D-kit cells; SLF and 5µM econazole, 18 hours, Figure 6A): 10 nM
- cell death at higher levels of ionomycin (32D-kit-Bcl-2 cells): did not demonstrate significant cell death
- protection from apoptosis by SLF plus blocker (32D-kit-Bcl-2 cells; low levels of ionomycin): similarly protected from apoptosis
- protection from death induced by the Ca^2+ influx blocker (MDA-MB-231 cells): can protect

Molecule: CN1CCC(=C2c3ccccc3CC(=O)c3sccc32)CC1 [ketotifen]
- cell death [1, 3]: converted to a death signal
- cell death [1, 4]: combine with IgE receptor cross-linking to induce cell death
- activity on the leukemic cells in vivo (32D-kit leukemia cells; SLF intravenously): little activity
- G418-resistant colonies, arithmetic average (32D-kit leukemia cells; [6]): 5,502 colonies/spleen
- G418-resistant colonies, geometric mean (32D-kit leukemia cells; [6]): 849 colonies/spleen
- IL-3-dependent colonies, arithmetic average [2]: 7,715 colonies/spleen
- IL-3-dependent colonies, geometric mean [2]: 2,320 colonies/spleen

Molecule: CCCCCCCC/C=C\CCCCCCCC(=O)O [oleic acid, cis-9-octadecenoic acid]
- range of effectiveness (rescue from cell death) (32D-kit cells; [5]): 1 to 100 µM
- rescue/protection from cell death induced by SLF and Ca^2+ influx blocker (32D-kit cells; [5]): rescued from cell death
- protection from death induced by the Ca^2+ influx blocker (MDA-MB-231 cells): can protect

Molecule: COc1ccc(CCN(C)CCCC(C#N)(c2ccc(OC)c(OC)c2)C(C)C)cc1OC (stereo not drawn) [verapamil]
- inducing cell death (32D-kit cells; combined with SLF, not shown, cell type not stated): ineffective in inducing cell death

Molecule: YVAD-CHO
- resistance to apoptosis induced by SLF plus econazole (32D-kit cells; 25 µM YVAD-CHO, 18 hours, Figure 8): provides resistance
- protection from apoptosis induced by factor withdrawal (32D-kit cells; 25 or 250 µM YVAD-CHO, Figure 7B): fails to protect
- protection from apoptosis induced by the topoisomerase inhibitor etoposide (32D-kit cells; not shown): protects
- protection from death induced by the Ca^2+ influx blocker (MDA-MB-231 cells): can protect
